In ChEMBL document CHEMBL1201862, “PubChem BioAssay data set” (2004):
The source made the active and inactive calls.

Legend:
Cysteine protease ATG4B = biological target: T1, Cysteine protease ATG4B (Homo sapiens, UniProt Q9Y4P1); assay type: functional;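 further: Fluorescence-based dose-response confirmation assay measuring inhibition of ATG4B activity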
T1 sequence (Q9Y4P1 whole entry): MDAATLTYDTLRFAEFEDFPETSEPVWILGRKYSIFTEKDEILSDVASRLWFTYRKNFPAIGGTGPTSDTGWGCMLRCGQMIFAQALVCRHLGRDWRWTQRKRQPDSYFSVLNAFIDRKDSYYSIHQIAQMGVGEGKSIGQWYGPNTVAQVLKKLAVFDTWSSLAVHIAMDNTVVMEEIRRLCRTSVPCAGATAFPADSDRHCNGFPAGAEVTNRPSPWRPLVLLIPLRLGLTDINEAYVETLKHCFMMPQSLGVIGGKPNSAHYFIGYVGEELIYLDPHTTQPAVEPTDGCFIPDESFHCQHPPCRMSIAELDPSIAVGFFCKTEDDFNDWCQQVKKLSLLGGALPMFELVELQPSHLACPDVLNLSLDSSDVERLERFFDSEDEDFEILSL

Phospholipase A2 = Phospholipase A2 (Homo sapiens, UniProt P04054); assay type: functional;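 further: confirmatory dose-response counterscreen on phospholipase A2, testing hits that came from an ultra-high-throughput screen for ATG4B inhibitors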
Prothrombin = Prothrombin (Homo sapiens, UniProt P00734); experiment: Thrombin 1536 HTS Dose Response Confirmation. [Related pubchem assays: 1046 (Thrombin 1536 HTS; hits were confirmed in this assay)]; assay type: functional
[1] = biological target: T2, Endoribonuclease toxin MazF (Escherichia coli K-12, UniProt P0AE70); experiment: MazF toxin RNase activators, dose response, biochemical, fluorescence, single-stranded RNA substrate, uHTS hits (AID 588481); assay type: functional
T2 sequence (P0AE70 whole entry): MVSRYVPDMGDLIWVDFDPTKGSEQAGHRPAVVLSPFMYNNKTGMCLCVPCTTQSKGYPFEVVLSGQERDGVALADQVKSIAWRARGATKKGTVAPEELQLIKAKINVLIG

[2] = biological target: T2, Endoribonuclease toxin MazF; experiment: fluorescent RNA oligo signal without MazF, dose response, counter-screen for MazEF activator project, biochemical, fluorescence, single-stranded RNase substrate (AID 588502); assay type: functional
Streptococcus = experiment: Group A Streptococcus viability loss, dose response, counter-screen for streptokinase expression inhibitor project, luminescence, BacTiterGlo (AID 1915); assay type: functional, organism-based;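 further: potency for reduction of bacterial viability or growth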
[3] = biological target: T3, Corticotropin-releasing factor receptor 2/Corticotropin-releasing factor-binding protein (Homo sapiens, UniProt P24387+Q13324); experiment: activators of CRF receptor 2 with binding protein – uHTS hits, confirmation (AID 602473); assay type: functional; settings: read-out: EC50_Mean
T3 sequence (Q13324 whole entry): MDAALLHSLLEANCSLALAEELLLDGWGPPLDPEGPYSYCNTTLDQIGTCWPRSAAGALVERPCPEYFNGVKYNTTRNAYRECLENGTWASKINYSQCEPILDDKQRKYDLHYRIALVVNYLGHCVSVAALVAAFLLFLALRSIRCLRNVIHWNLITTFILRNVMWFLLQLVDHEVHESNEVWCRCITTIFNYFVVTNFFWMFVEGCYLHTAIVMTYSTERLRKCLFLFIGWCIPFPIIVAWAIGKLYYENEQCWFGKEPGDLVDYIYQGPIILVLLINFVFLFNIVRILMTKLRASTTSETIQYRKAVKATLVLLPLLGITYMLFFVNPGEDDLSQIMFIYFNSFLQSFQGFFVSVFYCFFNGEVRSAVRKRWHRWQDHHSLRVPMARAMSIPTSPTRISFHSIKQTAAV
T3 sequence (P24387 whole entry): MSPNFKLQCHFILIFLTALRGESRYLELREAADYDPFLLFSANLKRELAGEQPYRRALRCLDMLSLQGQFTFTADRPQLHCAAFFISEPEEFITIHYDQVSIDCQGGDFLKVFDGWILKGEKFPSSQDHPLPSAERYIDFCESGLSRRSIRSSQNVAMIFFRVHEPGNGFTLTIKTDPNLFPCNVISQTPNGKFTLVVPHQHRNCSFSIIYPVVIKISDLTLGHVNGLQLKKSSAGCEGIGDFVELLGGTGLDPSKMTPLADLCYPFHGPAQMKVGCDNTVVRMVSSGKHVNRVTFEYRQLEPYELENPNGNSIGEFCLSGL

[4] = system: Streptococcus sp. 'group A'; experiment: growth inhibition of control SK(-) GAS strain, dose response, counter-screen for streptokinase expression inhibitor project, luminescence, kanamycin, BacTiterGlo, confirmation (AID 1900); assay type: functional, organism-based
Streptokinase A = biological target: T4, Streptokinase A (Streptococcus pyogenes serotype M1, UniProt P10520); experiment: S. pyogenes streptokinase expression inhibitors, potency, dose response, plasminogen activation absorbance, OD405 (AID 1914); assay type: functional, Streptococcus pyogenes M1 GAS;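 further: secreted streptokinase activity via plasminogen activation per viability signal from cell pellet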
T4 sequence (P10520 whole entry): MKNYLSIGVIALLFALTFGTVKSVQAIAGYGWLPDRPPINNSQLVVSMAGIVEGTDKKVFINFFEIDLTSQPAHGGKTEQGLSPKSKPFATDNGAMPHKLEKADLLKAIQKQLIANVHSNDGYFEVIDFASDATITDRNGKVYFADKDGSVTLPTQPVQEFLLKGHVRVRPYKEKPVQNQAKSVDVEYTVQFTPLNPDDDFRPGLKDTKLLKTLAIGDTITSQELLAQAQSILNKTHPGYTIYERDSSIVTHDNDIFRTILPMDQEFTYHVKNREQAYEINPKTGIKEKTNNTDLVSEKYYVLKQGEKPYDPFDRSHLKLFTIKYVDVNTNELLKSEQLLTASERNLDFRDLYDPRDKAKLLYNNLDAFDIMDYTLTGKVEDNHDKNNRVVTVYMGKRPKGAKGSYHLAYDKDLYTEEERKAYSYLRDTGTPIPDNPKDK

[5] = biological target: T5, High affinity choline transporter 1 (Homo sapiens, UniProt Q9GZV3); experiment: CHT inhibitors, dose response, cell-based, 10-point CRC, membrane potential dye (AID 588401); assay type: functional;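 further: membrane potential dye fluorescence of choline-evoked depolarization via CHT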
T5 sequence (Q9GZV3 whole entry): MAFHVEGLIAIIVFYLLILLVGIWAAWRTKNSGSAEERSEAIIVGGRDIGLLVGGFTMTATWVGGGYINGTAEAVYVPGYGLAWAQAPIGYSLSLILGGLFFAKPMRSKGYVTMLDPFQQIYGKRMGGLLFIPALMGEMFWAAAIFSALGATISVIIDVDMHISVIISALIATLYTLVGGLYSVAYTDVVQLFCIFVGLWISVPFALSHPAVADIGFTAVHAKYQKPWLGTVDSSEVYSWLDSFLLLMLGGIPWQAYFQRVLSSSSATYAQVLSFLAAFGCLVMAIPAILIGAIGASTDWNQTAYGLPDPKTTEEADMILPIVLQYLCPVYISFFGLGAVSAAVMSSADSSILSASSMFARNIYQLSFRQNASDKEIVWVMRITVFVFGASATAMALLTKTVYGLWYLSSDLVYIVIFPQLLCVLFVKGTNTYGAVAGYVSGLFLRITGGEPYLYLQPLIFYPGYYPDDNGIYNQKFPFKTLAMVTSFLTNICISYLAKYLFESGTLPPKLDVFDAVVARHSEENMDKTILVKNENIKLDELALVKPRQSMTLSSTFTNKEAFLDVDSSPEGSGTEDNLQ

[6] = C. albicans growth with fluconazole, confirmation, fluorescence, retest (AID 2467); assay type: functional, cell-based
[7] = NIH-3T3 fibroblast cytotoxicity, dose response, cytotoxicity control, cell-based, fluorescence, Alamar Blue, secondary assay (AID 2327); assay type: functional;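 further: NIH-3T3 mouse fibroblasts cultured with fluconazole at 8 µg/mL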
[8] = biological target: T5, High affinity choline transporter 1; experiment: CHT inhibitors, dose response, cell-based, 5-point CRC, membrane potential dye (AID 504840); assay type: functional
Genome polyprotein = Genome polyprotein (dengue virus type 2, UniProt P29990); experiment: Dengue-2 NS5 methyltransferase inhibitors, primary screen, biochemical, confirmation dose response (AID 588689); assay type: functional
Large T antigen = Large T antigen (Simian virus 40, UniProt P03070); assay type: functional, Betapolyomavirus macacae;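 further: Confirmatory-stage PubChem screen for compounds that inhibit SV40 T antigen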
[9] = biological target: Heat shock protein HSP 90-alpha (Homo sapiens, UniProt P07900); assay type: functional, organism-based
[10] = biological target: T6, Zinc finger protein mex-5 (Caenorhabditis elegans, UniProt Q9XUB2); experiment: MEX-5/TCR-2 RNA interaction inhibitors, dose response, biochemical, C. elegans, fluorescence polarization (AID 1960)
T6 sequence (Q9XUB2 whole entry): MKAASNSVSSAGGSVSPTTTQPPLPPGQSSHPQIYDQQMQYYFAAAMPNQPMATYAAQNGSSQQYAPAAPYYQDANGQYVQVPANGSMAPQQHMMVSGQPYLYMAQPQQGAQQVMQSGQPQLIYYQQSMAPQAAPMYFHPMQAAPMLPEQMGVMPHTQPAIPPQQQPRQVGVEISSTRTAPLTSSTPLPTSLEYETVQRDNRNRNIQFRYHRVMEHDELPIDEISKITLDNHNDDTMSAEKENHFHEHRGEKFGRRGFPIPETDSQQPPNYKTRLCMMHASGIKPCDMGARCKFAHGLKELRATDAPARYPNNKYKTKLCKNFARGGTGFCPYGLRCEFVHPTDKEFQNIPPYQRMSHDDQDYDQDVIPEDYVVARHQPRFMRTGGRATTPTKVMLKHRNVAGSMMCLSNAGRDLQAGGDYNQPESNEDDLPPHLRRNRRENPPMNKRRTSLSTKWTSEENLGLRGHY

Sequence of Phospholipase A2 (P04054 whole entry): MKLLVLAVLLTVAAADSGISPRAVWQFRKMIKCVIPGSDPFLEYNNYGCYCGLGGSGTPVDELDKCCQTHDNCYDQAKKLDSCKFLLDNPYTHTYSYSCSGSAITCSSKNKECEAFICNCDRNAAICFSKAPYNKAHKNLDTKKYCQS
Sequence of Genome polyprotein (P29990 2492-3391 limits assumed): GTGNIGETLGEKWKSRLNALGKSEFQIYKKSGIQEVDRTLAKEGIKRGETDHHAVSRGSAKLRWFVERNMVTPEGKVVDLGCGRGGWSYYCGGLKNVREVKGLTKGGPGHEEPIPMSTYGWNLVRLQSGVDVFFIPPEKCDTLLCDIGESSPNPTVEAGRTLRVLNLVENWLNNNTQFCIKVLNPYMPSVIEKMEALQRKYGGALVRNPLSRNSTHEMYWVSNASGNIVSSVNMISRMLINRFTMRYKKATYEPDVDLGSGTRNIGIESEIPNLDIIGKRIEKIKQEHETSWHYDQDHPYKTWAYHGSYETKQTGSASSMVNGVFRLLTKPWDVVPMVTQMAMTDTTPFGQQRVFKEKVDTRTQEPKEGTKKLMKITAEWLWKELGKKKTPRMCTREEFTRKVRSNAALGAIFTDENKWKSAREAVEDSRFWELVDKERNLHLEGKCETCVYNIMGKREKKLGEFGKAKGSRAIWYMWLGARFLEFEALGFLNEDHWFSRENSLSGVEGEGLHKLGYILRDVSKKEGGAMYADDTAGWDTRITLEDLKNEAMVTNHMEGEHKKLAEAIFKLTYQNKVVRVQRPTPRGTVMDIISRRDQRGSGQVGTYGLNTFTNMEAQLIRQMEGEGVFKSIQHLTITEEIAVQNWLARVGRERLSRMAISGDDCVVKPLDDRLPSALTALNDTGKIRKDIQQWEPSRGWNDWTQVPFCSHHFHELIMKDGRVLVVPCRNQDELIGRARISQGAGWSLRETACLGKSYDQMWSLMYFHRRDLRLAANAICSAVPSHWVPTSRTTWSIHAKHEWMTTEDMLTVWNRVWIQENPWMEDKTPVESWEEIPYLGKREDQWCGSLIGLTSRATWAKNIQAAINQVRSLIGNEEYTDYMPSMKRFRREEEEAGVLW
Sequence of Large T antigen (P03070 whole entry): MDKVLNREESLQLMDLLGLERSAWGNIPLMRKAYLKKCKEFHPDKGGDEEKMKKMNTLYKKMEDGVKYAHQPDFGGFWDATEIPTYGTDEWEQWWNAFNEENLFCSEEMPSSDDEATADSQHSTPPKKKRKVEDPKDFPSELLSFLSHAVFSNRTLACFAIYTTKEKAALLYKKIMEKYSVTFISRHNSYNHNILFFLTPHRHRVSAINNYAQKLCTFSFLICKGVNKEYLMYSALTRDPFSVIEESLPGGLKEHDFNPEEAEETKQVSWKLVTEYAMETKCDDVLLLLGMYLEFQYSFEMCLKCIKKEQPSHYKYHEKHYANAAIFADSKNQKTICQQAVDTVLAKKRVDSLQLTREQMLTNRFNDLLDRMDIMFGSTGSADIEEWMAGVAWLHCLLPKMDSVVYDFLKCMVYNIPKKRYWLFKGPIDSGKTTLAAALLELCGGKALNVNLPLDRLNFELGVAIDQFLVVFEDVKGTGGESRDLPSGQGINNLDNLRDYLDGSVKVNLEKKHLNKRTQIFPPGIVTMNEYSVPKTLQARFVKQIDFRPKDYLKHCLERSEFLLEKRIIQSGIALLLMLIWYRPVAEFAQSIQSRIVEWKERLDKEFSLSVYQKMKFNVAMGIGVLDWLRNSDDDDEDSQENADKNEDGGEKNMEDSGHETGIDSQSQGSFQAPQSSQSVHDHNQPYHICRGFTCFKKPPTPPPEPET

Structure (SMILES): O=C(O)c1cc([N+](=O)[O-])ccc1NCc1ccccc1Cl
- IC50 (Cysteine protease ATG4B): 11.9 µM (active)
- IC50 (Phospholipase A2): 9.55 µM (active)
- IC50 (Prothrombin): > 50 µM (not active)

Structure (SMILES): Nc1nonc1-n1nnc(C(=O)N/N=C/c2ccc3c(c2)OCO3)c1CSc1ccccc1
- EC50 [1]: > 99 µM (inactive)
- EC50 [2]: > 99 µM (inactive)

Structure (SMILES): CCC(CC)C1=NN2C(=N)/C(=C\c3cc(C)n(-c4cccc(C)c4)c3C)C(=O)N=C2S1
- EC50 (Streptococcus): 17.8 µM (active)
- IC50 (Cysteine protease ATG4B): 15.7 µM (active)
- IC50 (Phospholipase A2): 0.975 µM (active)
- EC50 [3]: 6.03 µM (active)
- EC50 [4]: 7.3 µM (active)
- EC50 (Streptokinase A): > 150 µM (not active)

Structure (SMILES): Nc1ncc(Br)cc1S(=O)(=O)Nc1cc(C(F)(F)F)cc(C(F)(F)F)c1
- IC50 [5]: 4.01 µM (active)
- EC50 (Streptococcus): 19.9 µM (active)
- IC50 (Cysteine protease ATG4B): 8.94 µM (active)
- EC50 [6]: 0.341 µM (active)
- EC50 [7]: 18.2 µM (active)
- IC50 [8]: 9.12 µM (active)
- IC50 (Phospholipase A2): 8.69 µM (active)
- EC50 [4]: 6.6 µM (active)
- EC50 (Streptokinase A): 3.32 µM (active)

Structure (SMILES): Oc1c(Br)cc(Br)c(/C=N/n2c(S)nnc2-c2ccccc2)c1Br
- IC50 (Genome polyprotein): 17.9 µM (active)
- IC50 (Large T antigen): 28.2 µM (active)
- AC50 [9]: 8.53 µM (active)
- IC50 (Cysteine protease ATG4B): 7.7 µM (active)
- EC50 [10]: 5.63 µM (active)
- IC50 [8]: 13.2 µM (active)
- IC50 (Phospholipase A2): 36.8 µM (inactive)

Structure (SMILES): CC(=O)Nc1cccc(C(=O)/C=C/c2ccc(N(C)C)cc2)c1
- EC50 [1]: > 99 µM (inactive)
- EC50 [2]: > 99 µM (inactive)
